This passage reports Km, kcat and MIC results from ChEMBL document CHEMBL1275582, “Role of the Ser-287-Asn replacement in the hydrolysis spectrum extension of AmpC beta-lactamases in Escherichia coli” (2009).

Assay [1] relates to Escherichia coli. Description: Activity of Escherichia coli TOP10 beta-lactamase AmpC-A.
Assay [2] relates to Escherichia coli. The experiment in a line: Antibacterial activity against Escherichia coli TOP10 expressing AmpC-B2 S287N mutant protein by agar dilution method. The format is functional. Background: In agar dilution the substance is mixed into plates at graded concentrations.
Assay [3] deals with Escherichia coli. The experiment in a line: Antibacterial activity against Escherichia coli TOP10 expressing AmpC-A S287N mutant protein by agar dilution method. It is filed as functional.
Assay [4] concerns Escherichia coli. Description: Activity of Escherichia coli TOP10 beta-lactamase AmpC-B2 S287N mutant.
The subject of assay [5] is Escherichia coli. Description: Activity of Escherichia coli TOP10 beta-lactamase AmpC-A S287N mutant.
In assay [6] the test system is Escherichia coli. The experiment in a line: Antibacterial activity against Escherichia coli TOP10 by agar dilution method. It is filed as functional.
Assay [7] concerns Escherichia coli. Description: Antibacterial activity against Escherichia coli TOP10 expressing AmpC-B2 by agar dilution method. The format is functional.
Assay [8] deals with Escherichia coli. The experiment in a line: Antibacterial activity against Escherichia coli TOP10 expressing AmpC-A by agar dilution method. The format is functional.
For assay [9], the system named is Escherichia coli. The experiment in a line: Activity of Escherichia coli TOP10 beta-lactamase AmpC-B2.
Assay [10] relates to Escherichia coli. The experiment in a line: Antibacterial activity against Escherichia coli TOP10 expressing AmpC-A S287N mutant protein by agar dilution method in presence of 2 mg/liter clavulanic acid. It is filed as functional.
The subject of assay [11] is Escherichia coli. Description: Antibacterial activity against Escherichia coli TOP10 by agar dilution method in presence of 2 mg/liter clavulanic acid. The format is functional.
The test system of assay [12] is Escherichia coli. Description: Antibacterial activity against Escherichia coli TOP10 expressing AmpC-A by agar dilution method in presence of 2 mg/liter clavulanic acid. The format is functional.
Assay [13] deals with Escherichia coli. The experiment in a line: Antibacterial activity against Escherichia coli TOP10 expressing AmpC-B2 S287N mutant protein by agar dilution method in presence of 2 mg/liter clavulanic acid. It is filed as functional.
Assay [14] deals with Escherichia coli. The experiment in a line: Antibacterial activity against Escherichia coli TOP10 expressing AmpC-B2 by agar dilution method in presence of 2 mg/liter clavulanic acid. It is filed as functional.
In assay [15] the test system is Escherichia coli. Description: Antibacterial activity against Escherichia coli TOP10 expressing AmpC-B2 S287N mutant protein by agar dilution method in presence of 4 mg/liter Tazobactam. It is filed as functional.
The subject of assay [16] is Escherichia coli. The experiment in a line: Antibacterial activity against Escherichia coli TOP10 by agar dilution method in presence of 4 mg/liter Tazobactam. The format is functional.
Assay [17] has as its system Escherichia coli. The experiment in a line: Antibacterial activity against Escherichia coli TOP10 expressing AmpC-A S287N mutant protein by agar dilution method in presence of 4 mg/liter Tazobactam. The format is functional.
In assay [18] the test system is Escherichia coli. The experiment in a line: Antibacterial activity against Escherichia coli TOP10 expressing AmpC-B2 by agar dilution method in presence of 4 mg/liter Tazobactam. It is filed as functional.
In assay [19] the test system is Escherichia coli. Description: Antibacterial activity against Escherichia coli TOP10 expressing AmpC-A by agar dilution method in presence of 4 mg/liter Tazobactam. The format is functional.

One may read the Km as the substrate concentration at which the rate is half of its maximum. As a reminder, the kcat is the number of substrate molecules converted per active site and unit of time at saturation. One may read the MIC as the lowest concentration found to suppress growth.

In brackets after ≈: the same amount, converted by molar mass.

For the compound `CO/N=C(\C(=O)N[C@@H]1C(=O)N2C(C(=O)O)=C(COC(C)=O)CS[C@H]12)c1csc(N)n1` [CEFOTAXIME], the Km with Escherichia coli [1] was 25 µM; in the assay with Escherichia coli [4] it was 1000 µM; in the assay on Escherichia coli [5] it was 100 µM; in the assay with Escherichia coli [9], 45 µM. Also, the kcat amounted to 0.2 s⁻¹ with Escherichia coli [1], 0.045 s⁻¹ with Escherichia coli [4], 0.08 s⁻¹ with Escherichia coli [5] and 0.1 s⁻¹ with Escherichia coli [9]. The minimal inhibitory concentration (MIC) against Escherichia coli [2] worked out at 1 µg/mL (≈ 2.2 µM); with Escherichia coli [3] it was 16 µg/mL (≈ 35.1 µM); against Escherichia coli [6], 0.06 µg/mL (≈ 0.132 µM); in the assay with Escherichia coli [7] it was 0.5 µg/mL (≈ 1.1 µM); against Escherichia coli [8], 1 µg/mL (≈ 2.2 µM).

In the case of `C[C@@H](O)[C@H]1C(=O)N2C(C(=O)O)=C(SCCNC=N)C[C@H]12` [IMIPENEM ANHYDROUS], the minimal inhibitory concentration (MIC) in the assay on Escherichia coli [2], against Escherichia coli [3], in the assay with Escherichia coli [7] and against Escherichia coli [8] was 0.06 µg/mL (≈ 0.2 µM) each time. In addition, the Michaelis constant (Km) in the assay on Escherichia coli [4] came out at 2000 µM; with Escherichia coli [5], 200 µM; in the assay with Escherichia coli [9] it was 32 µM. The kcat was found to be 0.06 s⁻¹ in the assay with Escherichia coli [4], 0.06 s⁻¹ in the assay on Escherichia coli [5] and 0.09 s⁻¹ with Escherichia coli [9].

In the case of `CC1(C)S[C@@H]2[C@H](NC(=O)[C@H](C(=O)O)c3ccsc3)C(=O)N2[C@H]1C(=O)O` [TICARCILLIN], the minimal inhibitory concentration (MIC) in the assay on Escherichia coli [10] worked out at 256 µg/mL; in the assay on Escherichia coli [2], 64 µg/mL (≈ 166 µM); with Escherichia coli [3] it was 256 µg/mL (≈ 666 µM); in the assay with Escherichia coli [11], 1 µg/mL; in the assay on Escherichia coli [12], 2 µg/mL; in the assay on Escherichia coli [13], 64 µg/mL. For the same compound, the MIC in the assay with Escherichia coli [6] came to 1 µg/mL (≈ 2.6 µM); in the assay on Escherichia coli [7], 2 µg/mL (≈ 5.2 µM); against Escherichia coli [8] it was 2 µg/mL (≈ 5.2 µM); in the assay with Escherichia coli [14], 2 µg/mL.

As to `CC1(C)S[C@@H]2[C@H](NC(=O)[C@H](N)c3ccc(O)cc3)C(=O)N2[C@H]1C(=O)O` [AMOXICILLIN], the MIC was 512 µg/mL in the assay with Escherichia coli [10]; 2 µg/mL with Escherichia coli [11]; greater than 512 µg/mL in the assay with Escherichia coli [12]; 512 µg/mL with Escherichia coli [13]; 2 µg/mL (≈ 5.47 µM) against Escherichia coli [6]; greater than 512 µg/mL with Escherichia coli [7]. Further, the figures for the minimal inhibitory concentration (MIC) in the assay with Escherichia coli [8] and in the assay with Escherichia coli [14] were greater than 512 µg/mL and 256 µg/mL, respectively.

Turning to `CO[C@@]1(NC(=O)Cc2cccs2)C(=O)N2C(C(=O)O)=C(COC(N)=O)CS[C@@H]21` [CEFOXITIN], the Km with Escherichia coli [1] came out at 1 µM; in the assay on Escherichia coli [4], 800 µM; with Escherichia coli [5], 700 µM; with Escherichia coli [9], 1.5 µM. The catalytic constant (kcat) with Escherichia coli [1] came out at 0.3 s⁻¹; in the assay on Escherichia coli [4], 0.08 s⁻¹; in the assay with Escherichia coli [5], 0.1 s⁻¹; in the assay with Escherichia coli [9], 0.4 s⁻¹. Moreover, the MIC with Escherichia coli [2] was determined as 128 µg/mL (≈ 299 µM); against Escherichia coli [3], 32 µg/mL (≈ 74.9 µM); in the assay on Escherichia coli [6] it was 2 µg/mL (≈ 4.68 µM); in the assay on Escherichia coli [7] it was 128 µg/mL (≈ 299 µM); in the assay with Escherichia coli [8] it was 128 µg/mL (≈ 299 µM).

For `CC(=O)OCC1=C(C(=O)O)N2C(=O)[C@@H](NC(=O)Cc3cccs3)[C@H]2SC1` [CEPHALOTHIN], the Km was found to be 30 µM in the assay with Escherichia coli [1], 5500 µM in the assay on Escherichia coli [5] and 85 µM in the assay with Escherichia coli [9]. The kcat in the assay on Escherichia coli [1] is 500 s⁻¹; in the assay with Escherichia coli [4] it was 10 s⁻¹; with Escherichia coli [5], 65 s⁻¹; in the assay with Escherichia coli [9], 540 s⁻¹. Moreover, the MIC with Escherichia coli [6] is 2 µg/mL (≈ 5.04 µM); against Escherichia coli [7], greater than 512 µg/mL; against Escherichia coli [8], greater than 512 µg/mL.

In the case of `C[C@H]1[C@H](NC(=O)/C(=N\OC(C)(C)C(=O)O)c2csc(N)n2)C(=O)N1S(=O)(=O)O` [AZTREONAM], the minimal inhibitory concentration (MIC) amounted to 16 µg/mL (≈ 36.7 µM) in the assay on Escherichia coli [3], 0.06 µg/mL (≈ 0.138 µM) against Escherichia coli [7] and 0.125 µg/mL (≈ 0.287 µM) against Escherichia coli [8].

As for `O=C(Cc1cccs1)N[C@@H]1C(=O)N2C(C(=O)[O-])=C(C[n+]3ccccc3)CS[C@H]12`, the kcat in the assay with Escherichia coli [1] is 230 s⁻¹; in the assay on Escherichia coli [4], 112 s⁻¹; in the assay on Escherichia coli [5] it was 50 s⁻¹; in the assay with Escherichia coli [9], 240 s⁻¹.

As to `CCN1CCN(C(=O)N[C@@H](C(=O)N[C@@H]2C(=O)N3[C@@H]2SC(C)(C)[C@@H]3C(=O)O)c2ccccc2)C(=O)C1=O` [PIPERACILLIN], the MIC came to 4 µg/mL in the assay with Escherichia coli [15]; 4 µg/mL (≈ 7.73 µM) in the assay on Escherichia coli [2]; 8 µg/mL (≈ 15.5 µM) in the assay with Escherichia coli [3]; 1 µg/mL in the assay with Escherichia coli [16]; 8 µg/mL in the assay on Escherichia coli [17]; 4 µg/mL in the assay on Escherichia coli [18]. Further, the minimal inhibitory concentration (MIC) came out at 4 µg/mL in the assay with Escherichia coli [19], 1 µg/mL (≈ 1.93 µM) in the assay on Escherichia coli [6], 2 µg/mL (≈ 3.86 µM) in the assay on Escherichia coli [7] and 4 µg/mL (≈ 7.73 µM) against Escherichia coli [8].

In the case of `CO/N=C(\C(=O)N[C@@H]1C(=O)N2C(C(=O)[O-])=C(C[N+]3(C)CCCC3)CS[C@H]12)c1csc(N)n1` [CEFEPIME], the minimal inhibitory concentration (MIC) in the assay with Escherichia coli [3] stood at 16 µg/mL (≈ 33.3 µM); in the assay on Escherichia coli [7] it was 0.06 µg/mL (≈ 0.125 µM); against Escherichia coli [8], 0.06 µg/mL (≈ 0.125 µM). In addition, the kcat is 0.25 s⁻¹ in the assay on Escherichia coli [4] and 1.35 s⁻¹ with Escherichia coli [5].

On to `CC(C)(O/N=C(\C(=O)N[C@@H]1C(=O)N2C(C(=O)[O-])=C(C[n+]3ccccc3)CS[C@H]12)c1csc(N)n1)C(=O)O` [CEFTAZIDIME], for which the Km came to 70 µM in the assay on Escherichia coli [1], 1000 µM with Escherichia coli [4] and 400 µM in the assay with Escherichia coli [5]. Moreover, the kcat came to 0.5 s⁻¹ in the assay with Escherichia coli [1], 0.01 s⁻¹ in the assay with Escherichia coli [4], 0.2 s⁻¹ with Escherichia coli [5] and 0.3 s⁻¹ with Escherichia coli [9]. Moreover, the minimal inhibitory concentration (MIC) against Escherichia coli [2] was found to be 4 µg/mL (≈ 7.32 µM); in the assay with Escherichia coli [3] it was 512 µg/mL (≈ 937 µM); in the assay with Escherichia coli [6], 0.06 µg/mL (≈ 0.11 µM); with Escherichia coli [7] it was 1 µg/mL (≈ 1.83 µM); in the assay with Escherichia coli [8] it was 2 µg/mL (≈ 3.66 µM).
